# Results from patent US6468476B1, “Methods for using-co-regulated genesets to enhance detection and classification of gene expression patterns” (Rosetta Inpharmatics, Inc., priority 1998, dated 2002).
# Tested on: genes regulated by the Gcn4 transcription factor
# Experiment: Transcript response (DNA microarray) to a titration series of FK506, genes of the Gcn4 geneset
# Format: cell-based, Saccharomyces cerevisiae
# Protocol: Yeast (Saccharomyces cerevisiae, Strain YPH499, see, Sikorski and Hieter, 1989, A system of shuttle vectors and yeast host strains designated for efficient manipulation of DNA in Saccharomyces cerevisiae, Genetics 122:19-27) cells were grown in YAPD at 30° C. to an OD600 of 1.0 (±0.2), and total RNA prepared by breaking cells in phenol/chloroform and 0.1% SDS by standard procedures (Ausubel et al., 1995, Current Protocols in Molecular Biology, Greene Publishing and Wiley-Interscience, New York, Ch. 13). Poly(A)^+ RNA was selected by affinity chromatography on oligo-dT cellulose (New England Biolabs) essentially as described in Sambrook et al. (Molecular Cloning—A Laboratory Manual (2nd Ed.), Vol. 1, Cold Spring Harbor Laboratory, Cold Spring Harbor, N.Y., 1989). First strand cDNA synthesis was carried out with 2 μg poly(A)^+ RNA and SuperScript™ II reverse transcriptase (Gibco-BRL) according to the manufacturer's instructions with the following modifications. Deoxyribonucleotides were present at the following concentrations: dA, dG, and dC at 500 μM each, dT at 100 μM and either Cy3-dUTP or Cy5-dUTP (Amersham) at 100 μM. cDNA synthesis reactions were carried out at 42-44° C. for 90 minutes, after which RNA was degraded by the addition of 2 units of RNAse H, and the cDNA products were purified by two successive rounds of centrifugation dialysis using MICROCON-30 microconcentrators (Amicon) according to the manufacturer's recommendations.
# Double-stranded DNA polynucleotides corresponding in sequence to each ORF in the S. cerevisiae genome encoding a polypeptide greater than 99 amino acids (based on the published yeast genomic sequence, e.g., Goffeau et al., 1996, Science 274:546-567) are made by polymerase chain reaction (PCR) amplification of yeast genomic DNA. Two PCR primers are chosen internal to each of the ORFs according to two criteria: (i) the amplified fragments are 300-800 bp and (ii) none of the fragments have a section of more than 10 consecutive nucleotides of sequence in common. Computer programs are used to aid in the design of the PCR primers. Amplification is carried out in 96 well microtitre plates. The resulting DNA fragments are printed onto glass microscope slides using the method of Shalon et al., 1996, Genome Research 6:639-645.
# Fluorescently-labeled cDNAs (2-6 μg) are resuspended in 4×SSC plus 1 μg/μl tRNA as carrier and filtered using […] filters (Millipore, Bedford, Mass.). SDS is added to 0.3%, prior to heating to 100° C. for 2 minutes. Probes are cooled and immediately hybridized to the microarrays produced as described in Example 6.2, for 4 hours at 65° C. Non-hybridized probe is removed by washing in 1×SSC plus 0.1% SDS at ambient temperature for 1-2 minutes. Microarrays are scanned with a fluorescence laser-scanning device as previously described (Schena et al., 1995, Science 270:467-470; Schena et al., 1995, Proc. Natl. Acad. Sci. USA 93:[…]) and the results (including the positions of perturbations) are recorded.
# Geneset number 3 in the clustering analysis result of FIG. 6 involves genes regulated by the Gcn4 transcription factor. This was verified via the literature and via multiple sequence alignment analysis of the regulatory regions 5′ to the individual genes (Stormo and Hartzell, 1989, Identifying protein binding sites from unaligned DNA fragments, Proc Natl Acad Sci 86:1183-1187; Hertz and Stormo, 1995, Identification of consensus patterns in unaligned DNA and protein sequences: a large-deviation statistical basis for penalizing gaps, Proc of 3rd Intl Conf on Bioinformatics and Genome Research, Lim and Cantor, eds., World Scientific Publishing Co., Ltd. Singapore, pp. 201-216). […] These 20 were used to define a geneset. Response profiles to a titration series of the drug FK506, which is known to hit this pathway at higher concentrations, were projected onto this geneset. […]
structure (smiles),measurement,setting,value
C=CC[C@@H]1/C=C(\C)C[C@H](C)C[C@H](OC)[C@H]2O[C@@](O)(C(=O)C(=O)N3CCCC[C@H]3C(=O)O[C@H](/C(C)=C/[C@@H]3CC[C@@H](O)[C@H](OC)C3)[C@H](C)[C@@H](O)CC1=O)[C@H](C)C[C@@H]2OC [FK506],Geneset Average response (projected response of the 20-gene Gcn4 geneset),FK506 7.5 μg/ml,7.8209 standard deviations of Log10(Expression Ratio)
same,Response of gene ARG1,FK506 7.5 μg/ml,4.2215 standard deviations of Log10(Expression Ratio)
same,Response of gene ARG4,FK506 7.5 μg/ml,3.2973 standard deviations of Log10(Expression Ratio)
same,"Response of gene ARG5,6",FK506 7.5 μg/ml,2.7433 standard deviations of Log10(Expression Ratio)
same,Response of gene ARO3,FK506 7.5 μg/ml,0.6059 standard deviations of Log10(Expression Ratio)
same,Response of gene ECM13,FK506 7.5 μg/ml,2.5343 standard deviations of Log10(Expression Ratio)
same,Response of gene HIS3,FK506 7.5 μg/ml,1.8024 standard deviations of Log10(Expression Ratio)
same,Response of gene HIS5,FK506 7.5 μg/ml,2.8414 standard deviations of Log10(Expression Ratio)
same,Response of gene MET16,FK506 7.5 μg/ml,0.1621 standard deviations of Log10(Expression Ratio)
same,Response of gene NCE3,FK506 7.5 μg/ml,1.569 standard deviations of Log10(Expression Ratio)
same,Response of gene PCL5,FK506 7.5 μg/ml,2.2898 standard deviations of Log10(Expression Ratio)
same,Response of gene SNO1,FK506 7.5 μg/ml,2.538 standard deviations of Log10(Expression Ratio)
same,Response of gene SNZ1,FK506 7.5 μg/ml,2.538 standard deviations of Log10(Expression Ratio)
same,Response of gene SSU1,FK506 7.5 μg/ml,0.5059 standard deviations of Log10(Expression Ratio)
same,Response of gene YBR047W,FK506 7.5 μg/ml,1.1596 standard deviations of Log10(Expression Ratio)
same,Response of gene YER024W,FK506 7.5 μg/ml,1.1526 standard deviations of Log10(Expression Ratio)
same,Response of gene YGL117W,FK506 7.5 μg/ml,2.699 standard deviations of Log10(Expression Ratio)
same,Response of gene YGL184C,FK506 7.5 μg/ml,−0.4586 standard deviations of Log10(Expression Ratio)
same,Response of gene YHR029C,FK506 7.5 μg/ml,2.3813 standard deviations of Log10(Expression Ratio)
same,Response of gene YMR195W,FK506 7.5 μg/ml,0.8879 standard deviations of Log10(Expression Ratio)
same,Geneset Average response (projected response of the 20-gene Gcn4 geneset),FK506 16 μg/ml,19.9913 standard deviations of Log10(Expression Ratio)
same,Response of gene ARG1,FK506 16 μg/ml,4.711 standard deviations of Log10(Expression Ratio)
same,Response of gene ARG4,FK506 16 μg/ml,4.5135 standard deviations of Log10(Expression Ratio)
same,"Response of gene ARG5,6",FK506 16 μg/ml,6.0457 standard deviations of Log10(Expression Ratio)
same,Response of gene ARO3,FK506 16 μg/ml,4.0553 standard deviations of Log10(Expression Ratio)
same,Response of gene CPA2,FK506 16 μg/ml,4.1093 standard deviations of Log10(Expression Ratio)
same,Response of gene ECM13,FK506 16 μg/ml,4.8689 standard deviations of Log10(Expression Ratio)
same,Response of gene HIS3,FK506 16 μg/ml,4.6461 standard deviations of Log10(Expression Ratio)
same,Response of gene HIS5,FK506 16 μg/ml,6.0052 standard deviations of Log10(Expression Ratio)
same,Response of gene MET16,FK506 16 μg/ml,3.3857 standard deviations of Log10(Expression Ratio)
same,Response of gene NCE3,FK506 16 μg/ml,5.5819 standard deviations of Log10(Expression Ratio)
same,Response of gene PCL5,FK506 16 μg/ml,5.4688 standard deviations of Log10(Expression Ratio)
same,Response of gene SNO1,FK506 16 μg/ml,5.8877 standard deviations of Log10(Expression Ratio)
same,Response of gene SNZ1,FK506 16 μg/ml,5.8877 standard deviations of Log10(Expression Ratio)
same,Response of gene SSU1,FK506 16 μg/ml,4.6461 standard deviations of Log10(Expression Ratio)
same,Response of gene YBR047W,FK506 16 μg/ml,3.3107 standard deviations of Log10(Expression Ratio)
same,Response of gene YER024W,FK506 16 μg/ml,4.6342 standard deviations of Log10(Expression Ratio)
same,Response of gene YGL117W,FK506 16 μg/ml,4.9827 standard deviations of Log10(Expression Ratio)
same,Response of gene YGL184C,FK506 16 μg/ml,2.7166 standard deviations of Log10(Expression Ratio)
same,Response of gene YHR029C,FK506 16 μg/ml,5.0446 standard deviations of Log10(Expression Ratio)
same,Response of gene YMR195W,FK506 16 μg/ml,4.0983 standard deviations of Log10(Expression Ratio)
same,Geneset Average response (projected response of the 20-gene Gcn4 geneset),FK506 50 μg/ml,21.3315 standard deviations of Log10(Expression Ratio)
same,Response of gene ARG1,FK506 50 μg/ml,5.7996 standard deviations of Log10(Expression Ratio)
same,Response of gene ARG4,FK506 50 μg/ml,5.8858 standard deviations of Log10(Expression Ratio)
same,"Response of gene ARG5,6",FK506 50 μg/ml,5.2406 standard deviations of Log10(Expression Ratio)
same,Response of gene ARO3,FK506 50 μg/ml,5.7035 standard deviations of Log10(Expression Ratio)
same,Response of gene CPA2,FK506 50 μg/ml,4.0958 standard deviations of Log10(Expression Ratio)
same,Response of gene ECM13,FK506 50 μg/ml,3.1882 standard deviations of Log10(Expression Ratio)
same,Response of gene HIS3,FK506 50 μg/ml,5.2637 standard deviations of Log10(Expression Ratio)
same,Response of gene HIS5,FK506 50 μg/ml,4.9557 standard deviations of Log10(Expression Ratio)
same,Response of gene MET16,FK506 50 μg/ml,4.855 standard deviations of Log10(Expression Ratio)
same,Response of gene NCE3,FK506 50 μg/ml,3.3928 standard deviations of Log10(Expression Ratio)
same,Response of gene PCL5,FK506 50 μg/ml,5.2339 standard deviations of Log10(Expression Ratio)
same,Response of gene SNO1,FK506 50 μg/ml,5.5665 standard deviations of Log10(Expression Ratio)
same,Response of gene SNZ1,FK506 50 μg/ml,5.5665 standard deviations of Log10(Expression Ratio)
same,Response of gene SSU1,FK506 50 μg/ml,3.5782 standard deviations of Log10(Expression Ratio)
same,Response of gene YBR047W,FK506 50 μg/ml,4.248 standard deviations of Log10(Expression Ratio)
same,Response of gene YER024W,FK506 50 μg/ml,5.8934 standard deviations of Log10(Expression Ratio)
same,Response of gene YGL117W,FK506 50 μg/ml,5.9066 standard deviations of Log10(Expression Ratio)
same,Response of gene YGL184C,FK506 50 μg/ml,5.3106 standard deviations of Log10(Expression Ratio)
same,Response of gene YHR029C,FK506 50 μg/ml,5.5781 standard deviations of Log10(Expression Ratio)
same,Response of gene YMR195W,FK506 50 μg/ml,4.6141 standard deviations of Log10(Expression Ratio)
